Experimental data published in US20120171123A1, “USES AND COMPOSITIONS FOR TREATMENT OF RHEUMATOID ARTHRITIS” (priority 2006, published 2012).

What was measured:
patients with RA [1] = assay: Study I: HUI3 health utility; format: in vivo, human; conditions: for mean HUI3 change from baseline: week 24 (6 months)
Experimental: Inclusion criteria for this study included: all patients had severe active disease; and all patients had failed prior DMARD(s).
The Health Utilities Index Mark 3 (HUI3) was assessed at three time points. HUI 3 consists of 8 attributes: vision, hearing, speech, ambulation, dexterity, emotion, cognition, and pain. HUI3 score changes of ≧0.03 are considered clinically important. […] As can also be seen in this figure, the Study 2 study population started with baseline values reflecting a patient population with a more severe disease activity than in Study I, as documented by TJC, SJC, HAQ, CRP, and number of previous DMARDs.

[2] = test system: patients with moderate to severe RA; assay: Study 1: Health Utilities Index Mark 3 (HUI3); format: in vivo, human; conditions: week 52
Experimental: The HUI3 was assessed at baseline, and at several time points during the study. Health Utility Index 3 (scale=0-1) measures preference of a health state, with “1” denoting perfect health and “0” denoting death. HUI3 changes of ≧0.03 are considered clinically important. The HUI3 classification system consists of 8 attributes and 5 or 6 levels on each attribute, ranging from full function to severe impairment.

[3] = test system: patients with long-standing RA who had inadequate responses to MTX; assay: Study 1 (adalimumab + MTX vs placebo + MTX, 12-month RCT plus OLE): radiographic progression (TSS, JE, JSN); format: in vivo, human
Experimental: The study design included a 12 month, double blind, randomized, placebo-controlled trial.
Patients were grouped into three cohorts based on baseline CRP concentrations: low (<1 mg/dL); intermediate (1-4 mg/dL); and high (>4 mg/dL). Analyses were further conducted in two categories of patients according to their change in CRP concentrations at Week 12: those with a ≧20% decrease in CRP from baseline; or those with a <20% decrease in CRP from baseline. The following efficacy and radiographic measures were analyzed at Week 52 in the three baseline CRP categories and in the two Week 12 change in CRP categories: DAS28, ACR 20/50/70, Health assessment questionnaire (HAQ), and Total Sharp score (TSS).
Two readers assessed X-rays performed at baseline (start of RCT), 1 year (end of RCT), and 3 years (post 2 years OLE). Changes from baseline in Total Sharp Score (TSS), Joint Erosions (JE), and Joint Space Narrowing (JSN) were calculated. ACR 20, 50, and 70 response rates, as well as TJC and SJC, were also measured.

patients with RA [4] = assay: Study I (adalimumab 40 mg eow + MTX vs placebo + MTX, 24 weeks): FACIT-F fatigue; format: in vivo, human; conditions: for mean FACIT-F change from baseline: week 24 (6 months)
Experimental: FACIT-F was administered at baseline, at 1 or 2 time points during the study, and at the end of the study. The questionnaire asked each patient the following “Below is a list of statements that other people with your illness have said are important. By circling one (1) number per line, please indicate how true each statement has been for you during the past 7 days.” The questions in the questionnaire used to determine the FACIT score included the following, where each patient indicated the appropriate number (0-4): I feel fatigued; I feel weak all over; I feel listless (“washed out”); I feel tired; I have trouble starting things because I am tired; I have trouble finishing things because I am tired; I have energy; I am able to do my usual activities; I need to sleep during the day; I am too tired to eat; I need help doing my usual activities; I am frustrated by being too tired to do the things I want to do; I have to limit my social activity because I am tired. FACIT-F scores range from 0-52, with higher scores representing less fatigue. FACIT-F changes of ≧4 are considered clinically meaningful.
For Study I, the mean change in baseline for the FACIT-F score at 6 months was 8.1 for ada 40 mg eow+mtx and 2.5 for placebo+mtx (p=0.01). The minimum clinical important difference was determined to be ≧4.0.

[5] = test system: RA patients treated with adalimumab in clinical trials in North America and Europe
Experimental: The rate of TB was calculated for the period before screening was initiated (primarily Phase I trials) and the period after screening was implemented. The screening program consisted of a clinical interview, a tuberculin skin test, and, in most patients, a chest X-ray (CXR). The definition of PPD-positive depended on local country-specific guidelines. For those people who were PPD-positive, or for whom the investigator felt the risk of TB reactivation was high, INH was given for prophylaxis.
The methodology differed among protocols. For instance, in Europe and Australia, it was initially used CXR only, and in later studies, CXR and purified protein derivative skin test (PPD) were both used. By contrast, in US and Canada, CXR and PPD were both used.

[6] = test system: MTX-naïve adult patients with early RA (<3 years); assay: Study J: escalation of injectable medicine from eow to weekly dosing; format: in vivo, human
Experimental: Study J was a 2-year, double-blind, active comparator-controlled, Phase III study. […] In patients receiving ADA+MTX or MTX monotherapy, the 7.5 mg MTX weekly dosage increased to 20 mg over 8 weeks, as tolerated and as needed. Monotherapy patients received either placebo pills (adalimumab arm) or placebo injections (MTX arm). Efficacy outcomes measured included ACR response, DAS28 remission, major clinical response, and radiographic change from baseline.
MTX optimization was required before starting weekly injections (to 20 mg weekly, maximum). Once initiated, weekly dosing of injectable medicine was to be maintained until end of study. Criteria for identification of dosage escalators were a sequence of 4 consecutive injections for which the interval for every two consecutive injections was ≦10 days, and/or that the date of escalation, defined as the second of the 4 injections, had to be on or after Week 16 in Year 1. Three dosage escalator categories were defined, based on best ACR response rate achieved any time prior to escalation: Group A=ACR non-responders (never achieved ACR20 prior to dosage escalation), Group B=Partial responders (achieved ACR20 or ACR50 at least once prior to escalation, but never ACR70), and Group C=ACR70 responders (achieved ACR70 at least once prior to escalation). Data are from the intention-to-treat (ITT) population, with missing data analyzed by non-responder imputation (NRI) for clinical measures and by linear imputation for total Sharp scores (TSS).

SMILES: CN(Cc1cnc2nc(N)nc(N)c2n1)c1ccc(C(=O)N[C@@H](CCC(=O)O)C(=O)O)cc1 [placebo+mtx, methotrexate]
- relative HUI3 change from baseline (patients with RA [1]; week 24): +10%
- mean HUI3 change from baseline (patients with RA [1]): 0.04
- mean HUI3 change from baseline (patients with RA [1]; listed as Placebo + mtx): 0.04
- mean HUI3 change from baseline (patients with RA [1]; listed as placebo + MTX): +0.04
- mean HUI3 improvement from baseline [2]: +0.07
- relative HUI3 improvement from baseline [2]: +18%
- mean change from baseline in Total Sharp Score ([3]; 12 months (blinded)): 2.8
- mean change from baseline in joint erosion score ([3]; 12 months (blinded)): 1.7
- mean change from baseline in joint space narrowing score ([3]; 12 months (blinded)): 1.2
- mean change from baseline in joint erosion score ([3]; 36 months (open-label)): 1.7
- mean change from baseline in joint space narrowing score ([3]; 36 months (open-label)): 1.3
- mean change from baseline in Total Sharp Score ([3]; 36 months (open-label; all patients on adalimumab 40 mg eow + mtx after month 12)): 3.0
- relative FACIT-F change from baseline (patients with RA [4]; week 24): +9%
- mean FACIT-F change from baseline (patients with RA [4]): 2.5
- mean FACIT-F change from baseline (patients with RA [4]; listed as placebo + MTX): +2.5

SMILES: NNC(=O)c1ccncc1 [INH, isoniazid, reference compound]
- patients who developed TB after INH prophylaxis ([5]; 835 patients who received INH): 0.5%
- subjects who developed TB after INH prophylaxis ([5]; Study A, 712 high-risk subjects given INH before adalimumab): 0.6%

SMILES: CN(Cc1cnc2nc(N)nc(N)c2n1)c1ccc(C(=O)N[C@@H](CCC(=O)O)C(=O)O)cc1 [MTX Monotherapy]
- Patients who became ACR20 responders after increase to weekly dosing ([6]; 1 year): 4%
- Patients who became ACR50 responders after increase to weekly dosing ([6]; 1 year): 1%
- Patients who reached DAS28 < 2.6 (remission) after increase to weekly dosing ([6]; 1 year): 0%
- Patients who became ACR20 responders after increase to weekly dosing ([6]; 2 years): 4%
- Patients who became ACR50 responders after increase to weekly dosing ([6]; 2 years): 2%
- Patients who reached DAS28 < 2.6 (remission) after increase to weekly dosing ([6]; 2 years): 1%
- Patients with Major Clinical Response after increase to weekly dosing ([6]; ACR70 for ≧6 consecutive months over a 2-year period): 1%
